Measurements reported in ChEMBL document CHEMBL3616389, “Identification of Novel D-Aspartate Oxidase Inhibitors by in Silico Screening and Their Functional and Structural Characterization in Vitro” (J Med Chem, 2015).
Activity calls are given as the source filed them. The rule behind the calls is not given here.

Key:
[1] = biological target: T1, D-aspartate oxidase (Homo sapiens, UniProt Q99489); experiment: Inhibition of human recombinant DDO expressed in Escherichia coli BL21(DE3) using D-Asp and D-Ala assessed as 2-oxo acid production after 10 mins by colorimetric assay
T1 sequence (Q99489 whole entry): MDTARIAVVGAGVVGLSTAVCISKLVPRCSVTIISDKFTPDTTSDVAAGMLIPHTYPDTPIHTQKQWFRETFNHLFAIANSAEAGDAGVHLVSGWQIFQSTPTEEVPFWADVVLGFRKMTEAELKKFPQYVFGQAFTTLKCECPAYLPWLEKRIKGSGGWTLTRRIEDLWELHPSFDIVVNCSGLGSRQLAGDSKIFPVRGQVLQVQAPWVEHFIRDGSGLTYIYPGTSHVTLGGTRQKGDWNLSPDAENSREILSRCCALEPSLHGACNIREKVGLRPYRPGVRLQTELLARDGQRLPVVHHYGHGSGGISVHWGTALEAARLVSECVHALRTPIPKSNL

[2] = biological target: D-amino-acid oxidase (Homo sapiens, UniProt P14920); experiment: Inhibition of human recombinant DAO expressed in Escherichia coli BL21(DE3) using D-Asp and D-Ala assessed as 2-oxo acid production after 10 mins by colorimetric assay
[3] = biological target: T2, D-aspartate oxidase (Homo sapiens) (UniProt Q99489); experiment: Competitive inhibition of human recombinant DDO expressed in Escherichia coli BL21(DE3) using D-Asp by Lineweaver-Burk plot analysis
T2 sequence (whole entry): T1 sequence (Q99489 whole entry)

[4] = biological target: T3, D-aspartate oxidase (Rattus norvegicus) (UniProt D3ZDM7); experiment: (§1) Inhibition of rat recombinant DDO using D-Asp
T3 sequence (whole entry): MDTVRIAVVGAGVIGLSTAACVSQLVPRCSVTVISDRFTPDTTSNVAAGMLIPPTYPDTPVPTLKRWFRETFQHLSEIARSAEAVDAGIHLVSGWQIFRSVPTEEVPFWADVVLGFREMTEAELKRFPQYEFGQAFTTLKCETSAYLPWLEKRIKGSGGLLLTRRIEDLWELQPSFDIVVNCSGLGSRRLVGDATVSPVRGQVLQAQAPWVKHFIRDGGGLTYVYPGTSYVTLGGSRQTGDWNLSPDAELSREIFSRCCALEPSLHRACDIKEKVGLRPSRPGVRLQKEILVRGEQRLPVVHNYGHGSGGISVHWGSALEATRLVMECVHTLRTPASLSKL

[5] = biological target: T4, D-aspartate oxidase (Rattus norvegicus, UniProt D3ZDM7); experiment: as §1
T4 sequence (D3ZDM7 whole entry): T3 sequence (whole entry)

[6] = biological target: T5, D-aspartate oxidase (Mus musculus, UniProt Q922Z0); experiment: Inhibition of mouse recombinant DDO using D-Asp
T5 sequence (Q922Z0 whole entry): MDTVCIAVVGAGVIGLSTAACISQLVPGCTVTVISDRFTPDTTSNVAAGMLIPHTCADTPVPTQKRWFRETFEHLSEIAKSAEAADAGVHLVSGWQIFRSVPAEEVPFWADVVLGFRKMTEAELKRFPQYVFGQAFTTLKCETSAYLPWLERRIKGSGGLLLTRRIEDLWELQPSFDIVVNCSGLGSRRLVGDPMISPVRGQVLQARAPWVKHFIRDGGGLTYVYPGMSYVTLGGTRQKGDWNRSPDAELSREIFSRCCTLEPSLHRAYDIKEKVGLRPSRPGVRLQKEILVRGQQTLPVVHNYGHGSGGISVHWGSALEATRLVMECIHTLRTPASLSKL

[7] = system: HeLa; experiment: Effect on L-Asp level in human HeLa cells at 250 uM after 24 hrs by HPLC analysis; type: functional, cell-based
[8] = biological target: T1, D-aspartate oxidase
[9] = biological target: T2, D-aspartate oxidase (Homo sapiens); details: HeLa, 250 uM
[10] = biological target: T2, D-aspartate oxidase (Homo sapiens); details: HeLa, 250 uM; remark: listed apart in the source
[11] = biological target: T2, D-aspartate oxidase (Homo sapiens); details: HeLa, 250 uM; remark: listed apart in the source
[12] = system: HeLa; experiment: Effect on D-Asp level in human HeLa cells at 100 uM after 24 hrs by HPLC analysis; type: functional, cell-based
[13] = system: HeLa; experiment: Effect on L-Asp level in human HeLa cells at 100 uM after 24 hrs by HPLC analysis; type: functional, cell-based
[14] = system: HeLa; experiment: Effect on D-Asp level in human HeLa cells at 1000 uM after 24 hrs by HPLC analysis; type: functional, cell-based
[15] = system: HeLa; experiment: Effect on L-Asp level in human HeLa cells at 1000 uM after 24 hrs by HPLC analysis; type: functional, cell-based
[16] = biological target: T2, D-aspartate oxidase (Homo sapiens); details: HeLa, 1000 uM
[17] = biological target: T2, D-aspartate oxidase (Homo sapiens); details: HeLa, 1000 uM; remark: listed apart in the source

Sequence of D-amino-acid oxidase (P14920 whole entry): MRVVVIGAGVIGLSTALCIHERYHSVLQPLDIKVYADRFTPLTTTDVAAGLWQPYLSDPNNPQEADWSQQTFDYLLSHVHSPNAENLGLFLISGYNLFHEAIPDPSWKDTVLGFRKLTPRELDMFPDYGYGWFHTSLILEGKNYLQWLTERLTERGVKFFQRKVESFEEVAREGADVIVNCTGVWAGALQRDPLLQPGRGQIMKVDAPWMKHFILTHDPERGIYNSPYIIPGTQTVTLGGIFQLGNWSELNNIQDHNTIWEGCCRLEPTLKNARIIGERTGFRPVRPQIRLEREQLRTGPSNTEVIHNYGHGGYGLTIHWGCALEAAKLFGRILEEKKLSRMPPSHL

Structure (SMILES) | IC50 [1] | IC50 [2] | further results
Nc1cccc(C(=O)O)n1 | > 0.1 mM | > 0.1 mM | 
O=C(O)c1cncc(S(=O)(=O)O)c1 | > 10 mM |  | 
Nc1cc(C(=O)O)ccn1 | > 0.1 mM | > 0.1 mM | 
Cc1cc(C(=O)O)c(N)s1 | 4.25 mM | 1.44 mM | 
Nc1ccc(Cl)cc1C(=O)O | > 10 mM | 3.93 mM | 
Nc1cccnc1C(=O)O | > 1 mM | > 1 mM | 
O=C(O)c1cncc(Br)c1 | > 10 mM |  | 
O=C(O)c1cncc([N+](=O)[O-])c1 | > 10 mM |  | 
Nc1ccnc(C(=O)O)c1 | > 0.1 mM | > 0.1 mM | 
Nc1cncc(C(=O)O)c1 | 0.0219 mM | > 2.5 mM | inhibition [3]: Active; inhibition [4]: Dose-dependent effect; Ki [5]: 5.89 µM; Ki [6]: 8.69 µM; Activity [7]: inactive; Ki [8]: 3.8 µM; inhibition [9]: Active; inhibition [10]: Active; inhibition [11]: inactive
O=C(O)c1ccccc1 [BENZOIC ACID] | > 10 mM | 0.134 mM | 
Nc1ccc(C(=O)O)cn1 | 2.36 mM | > 2.5 mM | 
Cc1ccc(C(=O)O)c(O)n1 | > 10 mM | > 10 mM | 
Nc1ccncc1C(=O)O | > 0.1 mM | > 0.1 mM | 
CNc1cncc(C(=O)O)c1 | 3.54 mM | > 10 mM | 
NC(=O)c1csc(C(=O)O)c1 | > 5 mM | 0.347 mM | 
O=C(O)c1cncc(O)c1 | 3.35 mM | > 10 mM | 
O=C(O)c1cncc(Cl)c1 | > 10 mM |  | 
O=C(O)c1cn2cnnc2nc1O |  | > 0.5 mM | inhibition [4]: Dose-dependent effect; Ki [5]: 65.9 µM; Ki [6]: 32.6 µM; Activity [12]: inactive; Activity [13]: inactive

Structure (SMILES) | IC50 [1] | IC50 [2] | further results
O=C(O)c1cncc(C(=O)O)c1 | > 10 mM |  | 
Nc1cnccc1C(=O)O | > 5 mM | > 5 mM | 
Cc1cncc(C(=O)O)c1 | 5.47 mM | 1.5 mM | 
O=C(O)c1cc(F)ccc1O | > 10 mM | 1.05 mM | 
O=C(O)c1cncc(-c2ccccc2)c1 | > 5 mM |  | 
Nc1ccc(C(=O)O)nc1 | > 10 mM | > 10 mM | 
O=C(O)c1cncc(C(F)(F)F)c1 | > 10 mM |  | 
O=C(O)c1cc(Cl)ccc1O [5-CHLOROSALICYLIC ACID] | > 10 mM | 3.67 mM | 
O=C(O)c1cncc(F)c1 [5-FLUORONICOTINIC ACID] | > 10 mM |  | 
CN(C)c1cncc(C(=O)O)c1 | > 1 mM |  | 
Nc1ncccc1C(=O)O | > 1 mM | > 1 mM | 
O=C(O)c1cc2ccccc2n1O | > 1 mM | 0.00134 mM | 
Nc1cccnc1 | > 10 mM | > 10 mM | 
COc1cncc(C(=O)O)c1 | > 10 mM |  | 
O=C(O)c1cccnc1 [NIACIN] | 2.78 mM | 1.13 mM | 
O=C(O)CC(=O)O [MALONIC ACID] | 0.879 mM | > 10 mM | inhibition [3]: Active; Ki [5]: 1560 µM; Ki [6]: 1220 µM; Activity [14]: inactive; Activity [15]: inactive; Ki [8]: 153 µM; inhibition [16]: inactive; inhibition [17]: inactive
O=C(O)c1ncccc1O | > 10 mM | 2.48 mM | 
Nc1cccc(C(=O)O)c1 [3-AMINOBENZOIC ACID] | > 10 mM | 0.392 mM | 
